pIC50: −log10 of the molar value.
Tests used:
[1] = target: HLA-B*0702 (Homo sapiens, UniProt P01889); type: binding; conditions: Table XXIV, B7 supermotif peptides
[2] = system: B7-supertype molecules (B*0702, B*3501, B*5101, B*5301, B*5401); assay: B7-supertype cross-reactive binding; set-up: species or system human; conditions: of five B7-supertype alleles tested

Compound	pIC50 [1]	No. of B7 Alleles Crossbound [2]
CC[C@H](C)[C@H](NC(=O)[C@H](CO)NC(=O)[C@H](CC(C)C)NC(=O)[C@H](CC(=O)O)NC(=O)[C@@H]1CCCN1C(=O)[C@H](CCCCN)NC(=O)[C@@H](NC(=O)CNC(=O)[C@H](CO)NC(=O)[C@@H]1CCCN1C(=O)[C@@H](N)Cc1ccccc1)C(C)C)C(=O)O [Her2/neu.600.F1I11]	6.71	4
CC[C@H](C)[C@H](NC(=O)[C@H](CO)NC(=O)[C@H](CC(C)C)NC(=O)[C@H](CC(=O)O)NC(=O)[C@@H]1CCCN1C(=O)[C@H](CCCCN)NC(=O)[C@@H](NC(=O)CNC(=O)[C@H](CO)NC(=O)[C@@H]1CCCN1C(=O)[C@@H](N)CS)C(C)C)C(=O)O [Her2/neu.600.I11]	6.54	3
CC[C@H](C)[C@H](NC(=O)[C@H](C)NC(=O)[C@H](CO)NC(=O)[C@@H](NC(=O)[C@@H](NC(=O)[C@H](CO)NC(=O)[C@@H](NC(=O)[C@H](CC(C)C)NC(=O)[C@@H]1CCCN1C(=O)[C@@H](N)Cc1ccccc1)[C@@H](C)O)[C@@H](C)CC)[C@@H](C)CC)C(=O)O [Her2/neu.649.F1I10]	6.64	5
CC[C@H](C)[C@H](NC(=O)[C@@H](NC(=O)[C@H](C)NC(=O)[C@H](CO)NC(=O)[C@@H](NC(=O)[C@@H](NC(=O)[C@H](CO)NC(=O)[C@@H](NC(=O)[C@H](CC(C)C)NC(=O)[C@@H]1CCCN1C(=O)[C@@H](N)Cc1ccccc1)[C@@H](C)O)[C@@H](C)CC)[C@@H](C)CC)C(C)C)C(=O)O [Her2/neu.649.F1I11]	6.44	5
CC[C@H](C)[C@H](NC(=O)[C@H](CO)NC(=O)[C@@H](NC(=O)[C@@H](NC(=O)[C@H](CO)NC(=O)[C@@H](NC(=O)[C@H](CC(C)C)NC(=O)[C@@H]1CCCN1C(=O)[C@@H](N)CO)[C@@H](C)O)[C@@H](C)CC)[C@@H](C)CC)C(=O)O [Her2/neu.649.I9]	7.07	3
CC[C@H](C)[C@H](NC(=O)[C@@H](NC(=O)[C@H](CCCNC(=N)N)NC(=O)[C@H](CCSC)NC(=O)[C@H](CCC(N)=O)NC(=O)[C@H](C)NC(=O)[C@H](CCC(N)=O)NC(=O)[C@H](CC(N)=O)NC(=O)[C@@H]1CCCN1C(=O)[C@@H](N)Cc1ccccc1)[C@@H](C)CC)C(=O)O [Her2/neu.706.F1I10]	6.54	4

These reach a higher pIC50 [1]. Values come first.

pIC50 [1]	No. of B7 Alleles Crossbound [2]	Compound
7.12	1	CC[C@H](C)[C@H](NC(=O)[C@@H]1CCCN1C(=O)[C@H](CCSC)NC(=O)[C@H](Cc1ccc(O)cc1)NC(=O)[C@H](CO)NC(=O)[C@H](CC(C)C)NC(=O)[C@H](CC(=O)O)NC(=O)[C@@H]1CCCN1C(=O)[C@@H](N)CCCCN)C(=O)O [Her2/neu.605]
7.21	1	CC[C@H](C)[C@H](NC(=O)[C@H](CO)NC(=O)[C@@H](NC(=O)[C@H](CC(C)C)NC(=O)[C@@H]1CCCN1C(=O)[C@@H](N)CO)[C@@H](C)O)C(=O)N[C@H](C(=O)N[C@@H](CO)C(=O)N[C@@H](C)C(=O)N[C@H](C(=O)O)C(C)C)[C@@H](C)CC [Her2/neu.649]
7.66	5	CC[C@H](C)[C@H](NC(=O)[C@@H]1CCCN1C(=O)[C@H](CCSC)NC(=O)[C@H](Cc1ccc(O)cc1)NC(=O)[C@H](CO)NC(=O)[C@H](CC(C)C)NC(=O)[C@H](CC(=O)O)NC(=O)[C@@H]1CCCN1C(=O)[C@@H](N)Cc1ccccc1)C(=O)O [Her2/neu.605.F1]
8.70	4	CSCC[C@H](NC(=O)[C@H](C)NC(=O)CNC(=O)[C@H](CO)NC(=O)[C@@H]1CCCN1C(=O)[C@@H](NC(=O)[C@H](CC(C)C)NC(=O)[C@@H]1CCCN1C(=O)[C@@H](N)Cc1ccccc1)[C@@H](C)O)C(=O)O [Her2/neu.698.F1]
9.05	3	CC[C@H](C)[C@H](NC(=O)[C@H](C)NC(=O)CNC(=O)[C@H](CO)NC(=O)[C@@H]1CCCN1C(=O)[C@@H](NC(=O)[C@H](CC(C)C)NC(=O)[C@@H]1CCCN1C(=O)[C@@H](N)Cc1ccccc1)[C@@H](C)O)C(=O)O [Her2/neu.698.F1I9]

— patent US20040121946A9, “Inducing cellular immune responses to her2/neu using peptide and nucleic acid compositions” (priority 2002, published 2004)
